Key:
Type in all cases: in vivo
[1] = tested on: Leptochloa chinensis; assay: Test Example 3: herbicidal effect by foliage application, Wagner pot (symbol D); details: application herbicide amount 320 g/ha; for D (Leptochloa chinensis) herbicidal effect grade: Table 24
Outline: (§1)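 Foliar spray of water-diluted emulsion formulation at a predetermined herbicide amount onto 14-day-old plants in flooded alluvial soil (water depth 0.1–0.5 cm), greenhouse 25–30 °C; rice sown alongside. Scored 3 wk post-application on set criteria.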

[2] = tested on: Monochoria vaginalis; assay: Test Example 1: herbicidal activity, application before weed generation in submerged conditions (symbol C); details: application herbicide amount 320 g/ha
Outline: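 Greenhouse growth at 25–30 °C lasted 3 weeks after treatment, when each weed was graded 0–5 by herbicidal ratio. Treatment was a diluted emulsion applied to the water surface of 4 cm-submerged alluvial soil on the sowing day.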

[3] = tested on: Chenopodium album; assay: Test Example 4: herbicidal effect by soil treatment (symbol O)
Outline: (§2)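 Seeds were sown in sterilized diluvial soil, covered with about 1.5 cm of soil, and the soil surface was sprayed with a water-diluted emulsion of the compound at a predetermined rate. Plants grew in a greenhouse at 25° C. to 30° C.; effects were scored visually 3 weeks after application.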

[4] = tested on: soybean; assay: Test Example 5: effect on crop by foliage application, plastic box (symbol d); details: 320 g/ha, 3 weeks after application
Outline: (§3)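 Sterilized diluvial soil, plastic box (21 × 13 × 7 cm); spot sowing, ~1.5 cm soil cover; greenhouse 25–30° C.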

[5] = tested on: beet; assay: Test Example 4: effect on crop by soil treatment (symbol f); details: for f: beet, effect grade on crop: 320 g/ha
Outline: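 Sterilized diluvial soil, spot sowing, ~1.5 cm soil cover; greenhouse 25–30° C.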

[6] = tested on: Digitaria ciliaris; assay: Test Example 4: herbicidal effect by soil treatment (symbol F)
Outline: as §2

[7] = tested on: directly sowed rice plant; assay: Test Example 3: effect on crop by foliage application, Wagner pot (symbol b); details: application herbicide amount 320 g/ha; for b (directly sowed rice plant) effect on crop grade: Table 24
Outline: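 Alluvial soil in a 1/10000-are Wagner pot was flooded to a water depth of 0.1–0.5 cm. Echinochloa crus-galli var. crus-galli, Leptochloa chinensis, Cyperus difformis and rice were sown into it and grown in a greenhouse at 25–30 °C.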

[8] = tested on: Lolium multiflorum Lam.; assay: Test Example 4: herbicidal effect by soil treatment (symbol K)
Outline: as §2

[9] = tested on: Echinochloa crus-galli var. crus-galli; assay: Test Example 3: herbicidal effect by foliage application, Wagner pot (symbol H); details: application herbicide amount 320 g/ha; for H (Echinochloa crus-galli var. crus-galli) herbicidal effect grade: Table 24
Outline: as §1

[10] = tested on: Echinochloa oryzacola Vasing.; assay: Test Example 2: herbicidal activity, application during weed generation in submerged conditions (symbol A); details: Table 23; application herbicide amount 320 g/ha; grade 0-5 by criteria of Test Example 1
Outline: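 Paddy pot test, submerged (4 cm water), alluvial soil, mixed sowing; greenhouse 25–30° C. Emulsion formulation diluted to predetermined rate, applied onto floodwater at 1–2 leaf stage. Visual herbicidal rating at 3 wk post-treatment.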

[11] = tested on: corn; assay: Test Example 5: effect on crop by foliage application, plastic box (symbol c); details: 320 g/ha, 3 weeks after application
Outline: as §3

[12] = tested on: transplanted rice plant; assay: Test Example 1: effect on crop, application before weed generation in submerged conditions (symbol a); details: application herbicide amount 320 g/ha
Outline: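 Rice at 2.5 leaf stage transplanted into submerged soil (4 cm depth) sown with three weed species; herbicide applied before weed emergence.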

[13] = application herbicide amount 320 g/ha

SMILES | D (Leptochloa chinensis) herbicidal effect grade [1] | C (Monochoria vaginalis) herbicidal effect grade [2] | Herbicidal effect grade, O: Chenopodium album [3, 13] | d: soybean, effect on crop grade [4] | b (directly sowed rice plant) effect on crop grade [7] | H (Echinochloa crus-galli var. crus-galli) herbicidal effect grade [9] | Herbicidal effect grade, A: Echinochloa oryzacola Vasing. [10] | c: corn, effect on crop grade [11] | a (transplanted rice plant) effect on crop grade [12] | herbicidal effect on D (Leptochloa chinensis), grade 0-5 [1] | Herbicidal effect grade, C: Monochoria vaginalis [2] | O: Chenopodium album, herbicidal effect grade ([3]; 320 g/ha) | d: soybean, effect on crop (criteria 0-5) [4] | f: beet, effect grade on crop [5] | F: Digitaria ciliaris, herbicidal effect grade ([6]; 320 g/ha) | effect on crop b (directly sowed rice plant), grade 0-5 [7] | K: Lolium multiflorum Lam., herbicidal effect grade ([8]; 320 g/ha) | herbicidal effect on H (Echinochloa crus-galli var. crus-galli), grade 0-5 [9] | c: corn, effect on crop (criteria 0-5) [11] | Effect grade on crop, a: transplanted rice plant [12] | other results
COCCON=C(CC1CC(O)=C(c2c(C)cc(-n3cc(Cl)cn3)cc2C)C1=O)C(C)C (stereo not drawn) [9-022] | 5 (Herbicidal ratio of 90% or more (almost completely withered)) | 0 (Herbicidal ratio of 5% or lower (almost no effect)) | 0 (Herbicidal ratio of 5% or lower (almost no effect)) | 0 (Herbicidal ratio of 5% or lower (almost no effect)) | 5 (Herbicidal ratio of 90% or more (almost completely withered)) | 5 (Herbicidal ratio of 90% or more (almost completely withered)) | 4 (Herbicidal ratio of 70% or higher and lower than 90%) | 2 (Herbicidal ratio of 20% or higher and lower than 40%) | 5 (Herbicidal ratio of 90% or more (almost completely withered)) |  |  |  |  |  |  |  |  |  |  |  | Effect on crop grade, f: beet [5, 13]: 0 (Herbicidal ratio of 5% or lower (almost no effect)); Herbicidal effect grade, F: Digitaria ciliaris [6, 13]: 5 (Herbicidal ratio of 90% or more (almost completely withered)); Herbicidal effect grade, K: Lolium multiflorum Lam. [8, 13]: 0 (Herbicidal ratio of 5% or lower (almost no effect))
CC(CC1CC(O)=C(c2c(C)cc(C)cc2C)C1=O)=NOCC(C)Cl (stereo not drawn) [1-121] |  |  |  |  |  |  | 5 (Herbicidal ratio of 90% or more (almost completely withered)) |  |  | 5 (Herbicidal ratio of 90% or more (almost completely withered)) | 3 (Herbicidal ratio of 40% or higher and lower than 70%) | 0 (Herbicidal ratio of 5% or lower (almost no effect)) | 2 (Herbicidal ratio of 20% or higher and lower than 40%) | 0 (Herbicidal ratio of 5% or lower (almost no effect)) | 5 (Herbicidal ratio of 90% or more (almost completely withered)) | 5 (Herbicidal ratio of 90% or more (almost completely withered)) | 5 (Herbicidal ratio of 90% or more (almost completely withered)) | 5 (Herbicidal ratio of 90% or more (almost completely withered)) | 5 (Herbicidal ratio of 90% or more (almost completely withered)) | 5 (Herbicidal ratio of 90% or more (almost completely withered)) | 
CC(CC1CC(O)=C(c2c(C)cc(C)cc2C)C1=O)=NOCC(N)=O (stereo not drawn) [1-124] |  |  |  |  |  |  | 2 (Herbicidal ratio of 20% or higher and lower than 40%) |  |  | 5 (Herbicidal ratio of 90% or more (almost completely withered)) | 0 (Herbicidal ratio of 5% or lower (almost no effect)) | 0 (Herbicidal ratio of 5% or lower (almost no effect)) | 0 (Herbicidal ratio of 5% or lower (almost no effect)) | 0 (Herbicidal ratio of 5% or lower (almost no effect)) | 0 (Herbicidal ratio of 5% or lower (almost no effect)) | 5 (Herbicidal ratio of 90% or more (almost completely withered)) | 3 (Herbicidal ratio of 40% or higher and lower than 70%) | 5 (Herbicidal ratio of 90% or more (almost completely withered)) | 4 (Herbicidal ratio of 70% or higher and lower than 90%) | 0 (Herbicidal ratio of 5% or lower (almost no effect)) | 
CC(CC1CC(O)=C(c2c(C)cc(C)cc2C)C1=O)=NOCC[S+](C)[O-] (stereo not drawn) [1-125] |  |  |  |  |  |  | 2 (Herbicidal ratio of 20% or higher and lower than 40%) |  |  | 5 (Herbicidal ratio of 90% or more (almost completely withered)) | 1 (Herbicidal ratio of 5% or higher and lower than 20%) | 0 (Herbicidal ratio of 5% or lower (almost no effect)) | 0 (Herbicidal ratio of 5% or lower (almost no effect)) | 0 (Herbicidal ratio of 5% or lower (almost no effect)) | 5 (Herbicidal ratio of 90% or more (almost completely withered)) | 5 (Herbicidal ratio of 90% or more (almost completely withered)) | 5 (Herbicidal ratio of 90% or more (almost completely withered)) | 5 (Herbicidal ratio of 90% or more (almost completely withered)) | 3 (Herbicidal ratio of 40% or higher and lower than 70%) | 5 (Herbicidal ratio of 90% or more (almost completely withered)) | 
CC(CC1CC(OC(=O)COc2ccccc2)=C(c2c(C)cc(-n3cc(Cl)cn3)cc2C)C1=O)=NOCC(F)(F)F (stereo not drawn) [9-012] | 5 (Herbicidal ratio of 90% or more (almost completely withered)) | 2 (Herbicidal ratio of 20% or higher and lower than 40%) | 0 (Herbicidal ratio of 5% or lower (almost no effect)) | 1 (Herbicidal ratio of 5% or higher and lower than 20%) | 5 (Herbicidal ratio of 90% or more (almost completely withered)) | 5 (Herbicidal ratio of 90% or more (almost completely withered)) | 5 (Herbicidal ratio of 90% or more (almost completely withered)) | 5 (Herbicidal ratio of 90% or more (almost completely withered)) | 5 (Herbicidal ratio of 90% or more (almost completely withered)) |  |  |  |  |  |  |  |  |  |  |  | Effect on crop grade, f: beet [5, 13]: 0 (Herbicidal ratio of 5% or lower (almost no effect)); Herbicidal effect grade, F: Digitaria ciliaris [6, 13]: 5 (Herbicidal ratio of 90% or more (almost completely withered)); Herbicidal effect grade, K: Lolium multiflorum Lam. [8, 13]: 5 (Herbicidal ratio of 90% or more (almost completely withered))
COc1cc(Br)cc(C)c1C1=C(O)CC(CC(=O)C2CC2)C1=O (racemic) [14-001] | 5 (Herbicidal ratio of 90% or more (almost completely withered)) | 3 (Herbicidal ratio of 40% or higher and lower than 70%) |  | 2 (Herbicidal ratio of 20% or higher and lower than 40%) | 5 (Herbicidal ratio of 90% or more (almost completely withered)) | 5 (Herbicidal ratio of 90% or more (almost completely withered)) | 5 (Herbicidal ratio of 90% or more (almost completely withered)) | 5 (Herbicidal ratio of 90% or more (almost completely withered)) | 5 (Herbicidal ratio of 90% or more (almost completely withered)) |  |  |  |  |  |  |  |  |  |  |  | O: Chenopodium album, herbicidal effect grade [3, 13]: 0 (Herbicidal ratio of 5% or lower (almost no effect)); f: beet, effect on crop grade [5, 13]: 0 (Herbicidal ratio of 5% or lower (almost no effect)); F: Digitaria ciliaris, herbicidal effect grade [6, 13]: 5 (Herbicidal ratio of 90% or more (almost completely withered)); K: Lolium multiflorum Lam., herbicidal effect grade [8, 13]: 5 (Herbicidal ratio of 90% or more (almost completely withered))

Source: US11000033B2, “Ketone or oxime compound, and herbicide” (NISSAN CHEMICAL CORPORATION, priority 2014, dated 2021)
